Measured values reported in patent US20170107179A1 (Tetraphase Pharmaceuticals, Inc., priority 2010, published 2017).

Experiments:
[1] = test system: S. pneumoniae strain SP514; assay: Immunocompetent CD-1 murine lung infection model; type: in vivo; details: immunocompetent CD-1 mice, SP514, orally dosed 30 mg/kg at 5, 24 and 36 hours post-infection (FIG. 2)
Procedure: Compound 102 was tested in an immunocompetent CD-1 murine model of lung infection challenged with S. pneumoniae strain SP514.

[2] = test system: subset of Gram-negative and Gram-positive isolates; assay: Minimum bactericidal concentration (MBC), CLSI M26-A, selected strains (Table 11)
[3] = test system: E. coli DH10B EC1153 Tet(X); assay: MIC, E. coli DH10B recombinantly expressing tetracycline-resistance gene; details: arabinose-induced, ampicillin in medium
S. maltophila = assay: Broth microdilution MIC by tetracycline resistance phenotype (Table 10); type: cell-based; set-up: unit not given beside the values

CN(C)[C@@H]1C(O)=C(C(N)=O)C(=O)[C@@]2(O)C(O)=C3C(=O)c4c(O)c5c(c(F)c4C[C@H]3C[C@@H]12)CN(C(C)(C)C)C5 [Compound 102]
89.3%: evaluated isolates with MBC:MIC ratio >2 [2]
4: MBC:MIC ([2]; Acinetobacter lwoffii isolate 2919857) | MBC:MIC ([2]; Acinetobacter lwoffii isolate 2919875) | MBC:MIC ([2]; Enierobacter cloacae isolate 2920082) | MBC:MIC ([2]; Enterobacter aerogenes isolate 2919909) | MBC:MIC ([2]; Klebsiella oxytoca isolate 2919964) | MBC:MIC ([2]; Proteus vulgaris isolate 2919836) | MBC:MIC ([2]; Salmonella species isolate 2919986) | MBC:MIC ([2]; Salmonella species isolate 2919990) | MBC:MIC ([2]; Salmonella species isolate 2920006) | MBC:MIC ([2]; Salmonella species isolate 2920008) | MBC:MIC ([2]; Serratia marcescens isolate 2920092) | MBC:MIC ([2]; Serratia marcescens isolate 2920109) | MBC:MIC ([2]; Shigella species isolate 2919892) | MBC:MIC ([2]; Streptococcus intermedius isolate 2919819) | MBC:MIC ([2]; Streptococcus mitis isolate 2919763) | MBC:MIC ([2]; Streptococcus sanguis isolate 2919749) | MIC EC1153 Tet(X) [3] | MIC90 (S. maltophila; TET NS, n=19)
>4: MBC:MIC ([2]; Morganella morganii isolate 2919931) | MBC:MIC ([2]; Morganella morganii isolate 2919935) | MBC:MIC ([2]; Proteus vulgaris isolate 2919835) | MBC:MIC ([2]; Serratia marcescens isolate 2920094)
8: MBC:MIC ([2]; Enterobacter aerogenes isolate 2919900) | MBC:MIC ([2]; Escherichia coli isolate 2921576) | MBC:MIC ([2]; Klebsiella oxytoca isolate 2919956) | MBC:MIC ([2]; Klebsiella oxytoca isolate 2919983) | MBC:MIC ([2]; Shigella species isolate 2920028) | MBC:MIC ([2]; Stenotrophomonas maltophilia isolate 2920051) | MBC:MIC ([2]; Streptococcus anginosus isolate 2919722) | MBC:MIC ([2]; Streptococcus anginosus isolate 2919797) | MBC:MIC ([2]; Streptococcus mitis isolate 2919803)
>2: MBC:MIC ([2]; Morganella morganii isolate 2919945) | MBC:MIC ([2]; Proteus vulgaris isolate 2919827)
bacteriostatic mode of action: mode of action from MBC:MIC ratios [2]
128: MBC:MIC ([2]; Acinetobacter lwoffii isolate 2919860)
>8: MBC:MIC ([2]; Klebsiella pneumonia isolate 2921528) | MBC:MIC ([2]; Klebsiella pneumoniae isolate 2921529) | MBC:MIC ([2]; Stenotrophomonas maltophilia isolate 2920035)
16: MBC:MIC ([2]; Enterobacter aerogenes isolate 2919913) | MBC:MIC ([2]; Shigella species isolate 2919894) | MBC:MIC ([2]; Streptococcus anginosus isolate 2919742) | MBC:MIC ([2]; Streptococcus intermedius isolate 2919756) | MBC:MIC ([2]; Streptococcus intermedius isolate 2919784) | MBC:MIC ([2]; Streptococcus sanguis isolate 2919758)
6.14+/−0.66 log10: log10 reduction in CFU versus the 48 hour untreated control [1]
>16: MBC:MIC ([2]; Escherichia coli isolate 2921525) | MBC:MIC ([2]; Staphylococcus aureus isolate 2919648) | MBC:MIC ([2]; Staphylococcus aureus isolate 2919649) | MBC:MIC ([2]; Staphylococcus aureus isolate 2919650)
1: MBC:MIC ([2]; Acinetobacter lwoffii isolate 2919873) | MBC:MIC ([2]; Enterobacter cloacae isolate 2920119) | MBC:MIC ([2]; Streptococcus mitis isolate 2919781) | MBC:MIC ([2]; Streptococcus mitis isolate 2919798) | MIC50 (S. maltophila; TET NS, n=19)
2: MBC:MIC ([2]; Enterobacter aerogenes isolate 2919897) | MBC:MIC ([2]; Enterobacter cloacae isolate 2920072) | MBC:MIC ([2]; Klebsiella oxytoca isolate 2919972) | MBC:MIC ([2]; Serratia marcescens isolate 2920100) | MBC:MIC ([2]; Shigella species isolate 2920018) | MBC:MIC ([2]; Streptococcus sanguis isolate 2919752)
64: MBC:MIC ([2]; Streptococcus intermedius isolate 2919759)
0.5: MIC50 (S. maltophila; TET S, n=10) | MIC90 (S. maltophila; TET S, n=10)
>1: MBC:MIC ([2]; Proteus vulgaris isolate 2919822)
32: MBC:MIC ([2]; Shigella species isolate 2920026)
